Experimental data published in patent US20230218573A1, “INDOLE COMPOUNDS FOR THE TREATMENT OF NEURODEGENERATIVE DISEASES” (GALYAN BIO, INC., priority 2020, published 2023).
“Also recorded” adds a separate entry of the source.

Key:
[1] = tested on: Htt14A2.6 PC12 cells (mHttex1-GFP); test: mHTT aggregation by filter retardation assay in Htt14A2.6 PC12 cells; assay type: cell-based; conditions: 24 hour treatment, different concentrations
Protocol: Compounds from the Biacore screening were selected for measurement of aggregation in a cell model Htt14A2.6 PC12. Htt14A2.6 PC12 cells express a GFP- tagged 97Q mHtt exon 1 fusion protein (mHttex1-GFP) in the presence of ponasterone A. Htt14A2.6 PC12 cells were grown in medium containing 5 µM ponasterone A for 20 hours prior to treatment with the compounds. Htt14A2.6 PC12 cells were plated at 50~60% confluency. Compound 22 was tested at a final concentration of 80 nM, 400 nM and 10 µM in cell culture medium for 24 hours. Htt14A2.6 PC12 cells were harvested, rinsed, homogenized in cold phosphate-buffered saline containing protease inhibitor cocktail, and centrifuged at 16000 g for 30 min at 4° C. twice. About 25 µg total protein of each sample was resolved in 8% SDS PAGE, transferred onto PVDF membrane, blotted with an anti-GFP antibody, and visualized by ECL detection. mHTT aggregates were quantified from the cell lysates by filter retardation assay (Wanker, E.E., et al., Methods Enzymol (1999); 309: 375-386).

[2] = Pharmacokinetics, plasma and brain concentration by UHPLC-TOF; assay type: in vivo, mice
Protocol: Compound 22 is an analog of Compound 7. […] Compound 22 pharmacokinetic properties was measured in three male CD1 mice at several timepoints. Compound 22 was dissolved in 10% DMSO, 10%, cremaphor, and 80% saline. The tested dose was 33.3 mg/kg body weight. Brain tissue was homogenized and protein precipitated with acetonitrile. […] As such, Compound 22 was selected for testing in an animal model of HD the R6/2 model. As described below, Compound 22 and its analogs were further tested for their effects on striatal cell viability and effects of mHTT levels.

[3] = Body weight of R6/2 mice under chronic administration; assay type: in vivo
Protocol: (§1) Methods - Total of 20 female and male R6/2 mice and 10 female and male wild-type littermate control mice (WT) were used in the study. The mice were genotyped and the R6/2 mice were divided into different treatment groups based on their litter and baseline body weight. The treatment with Vehicle or Compound 22(33 mg/kg; 5 ml/kg, i.p. QD) was started at 4 weeks of age after the baseline behavioral tests (FIG. 10). Body weights were measured at 3 weeks of age and twice a week until the end of the study.
The experimental groups were: • Group 1) 10 wild-type mice (mixed gender) treated with Vehicle (5 ml/kg, i.p., QD) starting at 4 weeks of age • Group 2) 10 R6/2 mice (mixed gender) treated with Vehicle (5 ml/kg, i.p., QD) starting at 4 weeks of age • Group 3) 10 R6/2 mice (mixed gender) treated with Compound 22 (33 mg/kg; 5 ml/kg, i.p. QD) starting at 4 weeks of age
44.3.7 - Compound Delivery and Dosing - Treatment with Compound 22 (33 mg/kg; 5 ml/kg, i.p. QD) or Vehicle was started at age week 4 and continued until the 12 weeks of age. The test articles were handled and stored and the dose formulations were prepared according to detailed instructions provided by the Sponsor.
44.3.8 - Body Weight - Body weight was measured starting at 3 weeks of age before treatment onset and two times per week on the same day (on Monday and Friday) until the end of the study.

[4] = tested on: R6/2 mice of Huntington's disease; test: Grip strength in R6/2 mice; assay type: in vivo; conditions: 33 mg/kg i.p. QD; 4-12 weeks of age
Protocol: as §1
The experimental groups were: • Group 1) 10 wild-type mice (mixed gender) treated with Vehicle (5 ml/kg, i.p., QD) starting at 4 weeks of age • Group 2) 10 R6/2 mice (mixed gender) treated with Vehicle (5 ml/kg, i.p., QD) starting at 4 weeks of age • Group 3) 10 R6/2 mice (mixed gender) treated with Compound 22 (33 mg/kg; 5 ml/kg, i.p. QD) starting at 4 weeks of age […]
Mice were taken to the experimental room and, one at a time, were placed on the grip strength apparatus (San Diego Instruments, San Diego, USA) in such a way that the animal grabbed a small mesh grip with its forepaws. […] Five scores were recorded per animal in consecutive sequence, and the average of three best scores for each animal was used for the results. […]

Exon1 Q46 = test: Circular dichroism of Exon1 Q46, predominantly α-helical state; assay type: biochemical; conditions: increasing doses
Protocol: Protein samples were diluted with buffer to 7.5 µM prior to Circular Dichroism (CD) measurements. Measurements were conducted at room temperature.
Four spectra at each measurement were taken every 1 nm from 200 to 260 nm, scanning at 50 nm/min with an averaging time of 1 sec. Spectra were obtained from samples in 20 mM phosphate, pH 7.4. Ten scans were averaged for each sample spectrum
Single-wavelength readings at 222 nm were obtained. After subtraction of the Trx contribution, the α-helical content of Httex1 was estimated from its mean residue ellipticity (MREHttex1) at 222 nm. This calculation was conducted as described by Bravo-Arredondo (Bravo-Arredondo, J.M. et al., J Biol Chem. 2018 Dec 21;293(51):19613-19623).
MRE Exon-1 […] and Q46 (Mean Residue Ellipticity) was measured every 1 sec for 300 sec; the 301 readings for each sample were averaged and MRE Trx subtracted. The number of amino acids in each sample to experience a change in helicity was estimated using a previously developed helix-coil transition model, which gave the change in fraction of helicity (ΔfHelix) by the following equation: […]
where MRE Exon1 Q26 or Q46 (MREHttex1 in the formula) describes the helix-coil transition, obtained from the difference between MRE Eon1 Q26 or Q46 at 222 nm of the fusion protein at the given temperature (in our case 37° C.) and the product of MRE Trx at 222 nm at the same temperature and the fraction of residues comprised by Trx in that particular construct, and
In order to calculate an equilibrium of the two states model, percent α-helicity was calculated using the relation of MREHttex1 = 0 and -34700 (deg cm^2 dmol^-1) for 0% and 100% helicity, respectively.
The CD measurements protocol for Compound 101 was the same as outlined above except that from 206 nm - 210 nm and 220 nm - 224 nm, the step size was 0.2 nm, and the bandwidth was 1 nm.

Exon1 Q46 protein = molecular target: T1, Exon1 Q46 protein (Homo sapiens, UniProt P42858, INS38QQQQQQQQQQQQQQQQQQQQQQQQQ); test: Kd to Exon1 Q46 protein; assay type: binding
T1 construct: fused on or other part: E. coli thioredoxin (TRX) at the N-terminus as a solubility handle; linker […]; C-terminal GSG-His6 tag
T1 sequence (P42858 whole entry, looked up, stated change not applied, the tested form may be a part): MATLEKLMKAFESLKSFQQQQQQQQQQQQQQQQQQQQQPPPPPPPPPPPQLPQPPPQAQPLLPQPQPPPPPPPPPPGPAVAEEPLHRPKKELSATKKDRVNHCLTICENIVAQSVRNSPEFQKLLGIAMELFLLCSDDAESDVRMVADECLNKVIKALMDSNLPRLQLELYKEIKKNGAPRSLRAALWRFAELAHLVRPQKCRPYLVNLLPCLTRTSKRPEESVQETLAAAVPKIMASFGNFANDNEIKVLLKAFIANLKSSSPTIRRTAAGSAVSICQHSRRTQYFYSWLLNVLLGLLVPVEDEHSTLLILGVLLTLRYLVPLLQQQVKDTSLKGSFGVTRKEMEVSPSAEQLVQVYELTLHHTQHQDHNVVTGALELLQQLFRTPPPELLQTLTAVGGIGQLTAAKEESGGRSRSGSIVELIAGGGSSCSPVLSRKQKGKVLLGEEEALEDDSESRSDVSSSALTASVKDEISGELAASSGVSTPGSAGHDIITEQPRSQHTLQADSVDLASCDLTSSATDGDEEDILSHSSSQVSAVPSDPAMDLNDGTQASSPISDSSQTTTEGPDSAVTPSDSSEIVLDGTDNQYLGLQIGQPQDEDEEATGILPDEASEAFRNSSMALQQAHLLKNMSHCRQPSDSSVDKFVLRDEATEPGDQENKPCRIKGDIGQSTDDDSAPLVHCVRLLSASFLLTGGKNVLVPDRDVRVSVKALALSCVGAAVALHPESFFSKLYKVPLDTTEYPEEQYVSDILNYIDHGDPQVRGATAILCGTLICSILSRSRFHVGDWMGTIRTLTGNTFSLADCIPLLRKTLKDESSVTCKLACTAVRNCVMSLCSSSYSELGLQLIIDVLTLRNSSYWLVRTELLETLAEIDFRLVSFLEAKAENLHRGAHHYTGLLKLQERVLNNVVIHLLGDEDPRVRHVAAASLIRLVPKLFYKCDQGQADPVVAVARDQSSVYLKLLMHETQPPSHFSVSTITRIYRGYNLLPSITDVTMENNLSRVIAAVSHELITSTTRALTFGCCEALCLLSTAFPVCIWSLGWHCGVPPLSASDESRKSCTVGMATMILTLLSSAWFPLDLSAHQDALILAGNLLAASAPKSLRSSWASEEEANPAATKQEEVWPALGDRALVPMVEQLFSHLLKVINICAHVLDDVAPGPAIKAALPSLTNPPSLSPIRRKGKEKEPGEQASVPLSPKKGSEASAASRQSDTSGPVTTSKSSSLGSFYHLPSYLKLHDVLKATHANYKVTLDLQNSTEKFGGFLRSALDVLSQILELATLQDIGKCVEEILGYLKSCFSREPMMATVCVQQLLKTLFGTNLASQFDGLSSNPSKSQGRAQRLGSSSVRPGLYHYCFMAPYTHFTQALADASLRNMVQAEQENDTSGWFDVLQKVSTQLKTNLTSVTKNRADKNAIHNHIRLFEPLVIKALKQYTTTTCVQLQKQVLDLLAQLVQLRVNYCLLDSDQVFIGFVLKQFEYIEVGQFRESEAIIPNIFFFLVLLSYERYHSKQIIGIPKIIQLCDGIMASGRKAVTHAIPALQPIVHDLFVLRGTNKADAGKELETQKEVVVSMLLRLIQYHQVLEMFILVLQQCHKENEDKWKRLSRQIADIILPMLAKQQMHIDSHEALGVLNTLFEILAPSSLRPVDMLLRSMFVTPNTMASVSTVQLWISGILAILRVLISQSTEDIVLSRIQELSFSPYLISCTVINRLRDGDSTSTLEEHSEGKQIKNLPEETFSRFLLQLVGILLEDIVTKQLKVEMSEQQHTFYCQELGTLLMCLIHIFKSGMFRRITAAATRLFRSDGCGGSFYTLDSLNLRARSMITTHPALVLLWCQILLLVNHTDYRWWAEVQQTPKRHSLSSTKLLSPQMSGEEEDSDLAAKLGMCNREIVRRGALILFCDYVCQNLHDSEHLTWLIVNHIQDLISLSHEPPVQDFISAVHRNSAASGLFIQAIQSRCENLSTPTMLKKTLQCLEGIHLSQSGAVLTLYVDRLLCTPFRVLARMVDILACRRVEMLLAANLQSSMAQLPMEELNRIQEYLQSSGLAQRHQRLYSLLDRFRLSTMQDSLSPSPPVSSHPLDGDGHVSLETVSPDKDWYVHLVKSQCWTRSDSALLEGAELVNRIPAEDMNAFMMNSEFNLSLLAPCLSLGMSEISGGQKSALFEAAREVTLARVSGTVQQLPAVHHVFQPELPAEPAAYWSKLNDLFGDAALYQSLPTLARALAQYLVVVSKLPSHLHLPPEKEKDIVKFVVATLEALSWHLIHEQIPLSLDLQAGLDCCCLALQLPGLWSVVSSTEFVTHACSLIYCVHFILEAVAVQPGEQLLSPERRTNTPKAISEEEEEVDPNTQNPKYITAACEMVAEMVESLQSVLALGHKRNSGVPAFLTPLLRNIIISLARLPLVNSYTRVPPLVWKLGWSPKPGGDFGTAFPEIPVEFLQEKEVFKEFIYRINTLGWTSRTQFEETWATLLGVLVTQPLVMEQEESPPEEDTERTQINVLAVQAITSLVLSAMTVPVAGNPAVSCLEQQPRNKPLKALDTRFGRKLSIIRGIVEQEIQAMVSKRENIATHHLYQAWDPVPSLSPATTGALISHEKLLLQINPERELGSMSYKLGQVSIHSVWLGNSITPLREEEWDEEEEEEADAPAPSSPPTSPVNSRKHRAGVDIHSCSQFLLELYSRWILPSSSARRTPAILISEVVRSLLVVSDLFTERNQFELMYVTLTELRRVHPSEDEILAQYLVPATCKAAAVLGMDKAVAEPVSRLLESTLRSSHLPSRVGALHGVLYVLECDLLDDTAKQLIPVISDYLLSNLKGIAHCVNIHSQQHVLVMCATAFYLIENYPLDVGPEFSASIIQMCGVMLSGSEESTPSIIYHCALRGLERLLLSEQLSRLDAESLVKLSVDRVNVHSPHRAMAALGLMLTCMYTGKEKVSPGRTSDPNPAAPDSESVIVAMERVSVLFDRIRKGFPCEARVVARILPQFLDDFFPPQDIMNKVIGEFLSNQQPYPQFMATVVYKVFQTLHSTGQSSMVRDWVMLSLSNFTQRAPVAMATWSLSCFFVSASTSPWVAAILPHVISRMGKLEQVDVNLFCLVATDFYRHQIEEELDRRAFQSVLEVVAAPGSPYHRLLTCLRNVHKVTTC

Cc1[nH]c2ccc(C(=O)NCCN(C(C)C)C(C)C)cc2c1C [Compound 22]
reduction of mHTT aggregation (filter retardation) [1]: A reduction of aggregation of Htt14A2.6 PC12 was observed; also recorded: A reduction of mHTT in Htt14A2.6 PC12 cells was observed
penetration of the blood brain area in vivo ([2]; male CD1 mice, 33.3 mg/kg body weight, 33.3 mg/kg): penetrates the blood brain area; also recorded: can penetrate the blood brain area in vivo
crossing of the blood brain barrier ([2]; mouse, in vivo): can cross the blood brain barrier
body weight versus vehicle treated R6/2 mice ([3]; 33 mg/kg i.p. QD from 4 to 12 weeks of age, pooled genders, females, males): no significant differences
body weight loss versus untreated female R6/2 mice ([3]; female R6/2 mice, week 12, 33 mg/kg i.p. QD): significantly improved
body weight loss improvement versus untreated male R6/2 mice ([3]; male R6/2 mice, week 12, 33 mg/kg i.p. QD): not observed
grip strength versus vehicle treated R6/2 mice [4]: no significant differences
effect of increasing doses on the predominantly α-helical state of Exon1 Q46 (Exon1 Q46): decreases the proportion of a predominantly α-helical state
Kd (Exon1 Q46 protein): 0.7 µM
